Data from patent US6703011B2, “Application of film forming technology to fragrance control release systems; and resultant fragrance control release systems” (International Flavors & Fragrances Inc., priority 1998, dated 2004).
Structures can show the parent of a compound that is named as a salt.

Columns and labels:
[1] = vapor pressure of fragrance components
[2] = FRAGRANCE PERMEATION TEST (diffusion cell, weight loss); type: physicochemical; settings: for permeation rate through hydroxypropyl cellulose / permeation rate through polyvinyl alcohol: 35° C., film thickness about 150 microns; for permeation rate through polyvinyl alcohol: FIG. 5C (98% hydrolyzed polyvinyl acetate)
Description: Referring to FIGS. 4A and 4B, fluid 46 is located in jar 44. Jar 44 has sidearm 45. The fluid 46 reaches fluid level 47. Directly in line with fluid level 47 is membrane 41. The diffusion membrane 41 is held in place with flanges 43 and jar lip 42, using bolts 401a and 401b which secures the flange in place. The sidearm 45 is closed using closure 49. The permeability apparatus is shown using reference numeral 40. The FRAGRANCE PERMEABILITY TEST is based on the use of the apparatus of FIGS. 4A and 4B. The weight of membrane 41 is taken, initially, before being placed within the flange 43 and the jar lip 42. Substance 46 for which the permeability is to be measured is placed into jar 44 to fluid level 47. The apparatus containing fluid 46 remains in place for a fixed period of time. At the end of that period of time, bolts 401a and 401b as well as 401c are loosened, the flange 43 removed and membrane 41 is removed and weighed, thereby gathering sufficient data to determine the permeability of the particular substance 46. The design and development of fragrance controlled release systems is built upon an understanding of the transport mechanisms of aroma chemicals and fragrances through polymers. The ability of the film forming polymers to sustain fragrance release was determined by permeation studies. A special diffusion cell has been developed to measure the steady state permeation of aroma chemicals and fragrances through polymeric films using weight loss. […] The polymeric film is mounted on the diffusion cell and is tightly secured by a glass ring fitted with three screws. […] The diffusant (fragrances, single or mixture of aroma chemicals) is kept in contact with the polymer film throughout the experiment period by filling the diffusion cell arm with the diffusant. The permeation rate of the diffusant is determined by monitoring the changes in the diffusion cell weight. The permeability coefficient, or permeability P, is useful in describing the rate of mass transport through a polymer at steady state. Permeability is related to two basic properties: diffusion and solubility. The permeability coefficient can be expressed by the diffusion coefficient (D) and the solubility coefficient (S). Their relationship is described by the following equation: This value is the actual weight loss that is being measured during our experiments. […] P=DS and the use of neat material (not dilution in a solvent), one can then solve the equation to determine the permeability coefficient using the cell dimension (surface area, A), the thickness of the film (L) and the weight loss data (Q=dM/dt): [formula] The effect of fragrance physical and chemical properties on its permeation rate through the film forming polymers was studied using the experimental setup described, supra. FIG. 5B, described in detail, supra, presents the effect of log10P on the permeation rate of the two model aroma chemicals through hydroxypropyl cellulose. The permeation studies were carried out at 35° C., and the temperature was kept constant within ±0.5 C. throughout the experiment period. […] The aroma chemicals studied, ethyl […] β-pinene, have approximately the same values of vapor pressure, but differ in their solubility in water. Ethyl […] lower value of log10P and thus is more water soluble than β-pinene. The permeation rates on two model aroma chemicals having a high and low log10P through a polyvinyl alcohol, having crystalline and better packed structure, were also studied and are illustrated in FIG. 5C, described in detail, supra. The permeation studies were carried out at 35° C., and the temperature was kept constant within +0.5° C. throughout the experiment period. […] The aroma chemicals studied, ethyl […] β-pinene, have about the same values of vapor pressure, but differ in their solubility in water. Ethyl […] lower value of log10P and thus is more water soluble than β-pinene.

[3] = evaporation rate of aroma chemical without the polymer; type: physicochemical; settings: 35° C.
Experimental: The effect of fragrance physical and chemical properties on its permeation rate through the film forming polymers was studied using the experimental setup described, supra. FIG. 5B, described in detail, supra, presents the effect of log10P on the permeation rate of the two model aroma chemicals through hydroxypropyl cellulose. The permeation studies were carried out at 35° C., and the temperature was kept constant within ±0.5 C. throughout the experiment period. The thickness of the films studied was about 150 microns. The aroma chemicals studied, ethyl […] β-pinene, have approximately the same values of vapor pressure, but differ in their solubility in water. Ethyl […] lower value of log10P and thus is more water soluble than β-pinene. The permeation rates on two model aroma chemicals having a high and low log10P through a polyvinyl alcohol, having crystalline and better packed structure, were also studied and are illustrated in FIG. 5C, described in detail, supra. The permeation studies were carried out at 35° C., and the temperature was kept constant within +0.5° C. throughout the experiment period. The thickness of the films studied was about 150 microns. The aroma chemicals studied, ethyl […] β-pinene, have about the same values of vapor pressure, but differ in their solubility in water. Ethyl […] lower value of log10P and thus is more water soluble than β-pinene.

[4] = polymer film material: carboxymethyl cellulose
[5] = polymer film material: polyvinyl alcohol (74% hydrolyzed)
[6] = polymer film material: polyvinyl alcohol (98% hydrolyzed)

| Molecule | Vapor Pressure ([1]; at 25° C.) [mm/Hg] | also measured |
| --- | --- | --- |
| CC1=CC(C)C(C=O)CC1 (stereo not drawn) | 0.3 |  |
| CC(OC=O)C1CCCC(C)(C)C1 (stereo not drawn) [C.P. FORMATE®, the formic acid ester of 1,1-dimethyl-3(1-hydroxyethyl)cyclohexane, reference compound] |  | Permeation ([2]; polymer film material: hydroxypropyl cellulose (molecular weight = 100,000)): 2.5 × 10^−4 mg-mm thickness/cm^2 area - mi; Vapor Pressure ([1]; figure legends, unit inferred): 0.1 mmHg |
| CC1(C)C2CCC1(C)C(O)C2 (stereo not drawn) [Example 1-borneol, 1-borneol] | 0.02 |  |
| CC(=O)c1cc2c(cc1C)C(C)(C)C(C)CC2(C)C (stereo not drawn) [TONALID ®] | 0.0001 |  |
| CC(=O)OC1CCC(C(C)(C)C)CC1 (stereo not drawn) [VERTENEX ® HC] | 0.03 |  |
| CC12CCC(CC1=O)C2(C)C (stereo not drawn) [camphor] | 0.1 |  |
| CC/C=C\CCOC(C)=O [cis-3-hexenyl acetate] | 2.0 |  |
| CC/C=C\CCOC(=O)c1ccccc1O [cis-3-hexenyl salicylate] | 0.0008 |  |
| C/C=C(\C)C(=O)OCC [ethyl tiglate] |  | permeation rate through hydroxypropyl cellulose [2]: exactly the same as its evaporation rate without the polymer; permeation rate through polyvinyl alcohol [2]: about 1.8×10^−4; permeation rate through hydroxypropyl cellulose ([2]; listed as Ethyl tiglate): equal to its evaporation rate; Permeation [2, 4]: 2.8 × 10^−3 mg-mm thickness/cm^2 area - mi; Permeation [2, 5]: 5 × 10^−3 mg-mm thickness/cm^2 area - mi; Permeation [2, 6]: 2 × 10^−3 mg-mm thickness/cm^2 area - mi; overall permeation rate ([2]; through positively charged polymers POLYMER LK and POLYMER LR-400 (FIG. 5I)): 5.8×10^−4; Vapor Pressure ([1]; figure legends, unit inferred): 1.8 mmHg |
| C=CC(C)(CCC=C(C)C)OC(C)=O (stereo not drawn) [linalyl acetate] | 0.07 |  |
| C=CCc1ccc(OC)cc1 [methyl chavicol] | 0.09 |  |
| CCCCCCCC=O [n-octanal] |  | Permeation ([2]; not told): 2.8 × 10^−3 mg-mm thickness/cm^2 area - mi |
| CC(=O)/C=C/C1=C(C)CCCC1(C)C [β-ionone] | 0.006 |  |
| OCCc1ccccc1 [β-phenyl ethyl alcohol] | 0.02 |  |
| C=C1CCC2CC1C2(C)C (stereo not drawn) [β-pinene] |  | evaporation rate without the polymer [3]: about 0.15; permeation rate through hydroxypropyl cellulose [2]: 2.7×10^−4; permeation rate through polyvinyl alcohol [2]: about 1.8×10^−4; Permeation [2, 4]: 2.8 × 10^−3 mg-mm thickness/cm^2 area - mi; Permeation [2, 5]: 2.5 × 10^−3 mg-mm thickness/cm^2 area - mi; Permeation [2, 6]: 2 × 10^−3 mg-mm thickness/cm^2 area - mi; permeation rate ([2]; through POLYMER LK (FIG. 5K, graph 596)): 3.9×10^−5; permeation rate ([2]; through POLYMER LR-400 (FIG. 5K, graph 595)): 7.5×10^−5; Vapor Pressure ([1]; figure legends, unit inferred): 2.2 mmHg |
| peach aldehyde coeur | 0.002 |  |

Further lines, with some results ahead:

| Vapor Pressure ([1]; at 25° C.) [mm/Hg] | Molecule | also measured |
| --- | --- | --- |
| 0.09 | CC(=O)O[C@@H]1C[C@H]2CC[C@]1(C)C2(C)C (racemic) [isobornyl acetate] |  |
| 0.002 | CC(=O)C1(C)CC2=C(CCCC2(C)C)CC1C (stereo not drawn) [ISO E SUPER ®] |  |
| 0.003 | CC(C=O)Cc1ccc(C(C)(C)C)cc1 (stereo not drawn) [LILIAL ®] |  |
| 0.07 | C=CCOC(=O)COCCC(C)C [allyl amyl glycolate] |  |
| 0.1 | CC(=O)OCc1ccccc1 [benzyl acetate] |  |
| 0.009 | CC(C)=CCCC(C)CCO (stereo not drawn) [citronellol] |  |
| 0.004 | CC(C=O)Cc1ccc(C(C)C)cc1 (stereo not drawn) [cyclamal] |  |
| 0.09 | C=CC(C)CCCC(C)(C)O (stereo not drawn) [dihydromyrcenol] |  |
| 0.0003 | CCCCCCC(C=O)=Cc1ccccc1 [hexyl cinnamic aldehyde] |  |
| 0.05 | C=CC(C)(O)CCC=C(C)C (stereo not drawn) [linalool] |  |
| 0.009 | CCCCCCCCCC(C)C=O (stereo not drawn) [methyl nonyl acetaldehyde] |  |
| 0.1 | CC(=O)OC(C)c1ccccc1 (stereo not drawn) [styralyl acetate] |  |
| 0.02 | CC1=CCC(C(C)(C)O)CC1 (stereo not drawn) [α-terpineol] |  |
